Read-outs that look alike come from different tables or passages of the source. Bridge positions count the residues as written; N and C are the ends. Square brackets hold non-standard residues; d marks the D form. Peptide text beside a SMILES is read from it. * marks the point of attachment. Isonicotinoyl(2-Ph) = O=C(c1ccnc(-c2ccccc2)c1)*; X3 = O=C(c1ccnc(-c2cccc(Cl)c2)c1)*; X1 = CC[C@H](C)CCCCC(=O)*; dDap = NC[C@@H](N)C(=O)O; Dab = NCC[C@H](N)C(=O)O; Dap = NC[C@H](N)C(=O)O
Experiments:
[1] = system: AB-3167, clinical isolate of Acinetobacter baumannii; type: cell-based
Procedure, shortened: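 Broth dilution MIC per CLSI (M7-A8, M100-S20, M26-A for bactericidal), 2-fold dilution series, overnight incubation, visual read of lowest concentration inhibiting growth versus drug-free control. Duplicates run; lower value reported if within 2-fold, otherwise repeated. Compounds tested as trifluoroacetate salts; QC strains and reference compounds required in range.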

[2] = system: AB-1649, polymyxin-resistant clinical isolate of Acinetobacter baumannii; type: cell-based; conditions: AB-1649, polymyxin-resistant clinical isolate of
Procedure, shortened: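 Broth dilution MIC per CLSI against the polymyxin-resistant A. baumannii isolate, 2-fold dilutions, overnight incubation, visual read of lowest concentration inhibiting growth. Run in duplicate, lower value reported when within 2-fold; MBC per CLSI M26-A guideline.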

[3] = system: Pseudomonas aeruginosa strain PA01; type: cell-based; conditions: strain
Procedure, shortened: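 CLSI broth dilution against P. aeruginosa PA01 with two-fold concentration steps and overnight incubation; MIC is lowest concentration visibly inhibiting growth versus drug-free control, in mg/L. Compounds tested as trifluoroacetate salts, in duplicate, lower value reported if within 2-fold; control organisms and reference compounds included.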

[4] = system: PA-1646, polymyxin-resistant clinical isolate of Pseudomonas aeruginosa; type: cell-based; conditions: PA-1646, polymyxin-resistant clinical isolate of
Procedure, shortened: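 Broth dilution MIC per CLSI with 2-fold concentration steps, read visually after overnight incubation as lowest concentration inhibiting growth; duplicates within 2-fold, lower value reported, with QC strains and reference compounds. Compounds tested as trifluoroacetate salts, polymyxin B as sulfate.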

[5] = system: AB-1649, polymyxin-resistant clinical isolate of Acinetobacter baumannii; type: cell-based; conditions: AB-1649, polymyxin-resistant clinical isolate of; remark: listed apart in the source
Procedure, shortened: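 MIC and MBC were measured by CLSI broth dilution methods (M7-A8, M100-S20, M26-A) against a polymyxin-resistant clinical isolate and reported in mg/L. Compounds were tested as trifluoroacetate salts, with one exception tested as the sulfate.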

[6] = system: PA-1646, polymyxin-resistant clinical isolate of Pseudomonas aeruginosa; type: cell-based; conditions: PA-1646, polymyxin-resistant clinical isolate of; remark: listed apart in the source
Procedure, shortened: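 Broth dilution MIC and bactericidal (MBC) testing per CLSI methods (M7-A8, M100-S20, M26-A) against polymyxin-resistant clinical P. aeruginosa isolate PA-1646. Compounds tested as trifluoroacetate salts, one as sulfate salt; values in mg/L.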

[7] = system: EC-1, mouse virulent strain of Escherichia coli; type: cell-based; conditions: E. coli EC-1; overnight incubation, lower of duplicate values; trifluoroacetate salt (Example 1 and PMB sulfate)
Procedure, shortened: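 Compounds were tested mostly as trifluoroacetate salts. Duplicate CLSI broth-dilution MICs were read visually after overnight incubation over 2-fold dilutions, with the lower of duplicates within 2-fold taken. QC organisms and reference drugs were included in each run.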

[8] = system: Human Renal Proximal Tubule Epithelial cells (hRPTEC); assay: Cytotoxicity assay (LDH release), hRPTEC; type: cell-based
Procedure, shortened: (§1)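 hRPTEC grown 72 h in REGM, then exposed to compounds at 100, 67, 44, 30, 20 and 13 micromolar for 24 h at 37° C, 5% CO2. LDH released into supernatant measured; TC50 (micromolar) derived. Compounds tested as trifluoroacetate salts unless otherwise noted.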

[9] = Cytotoxicity assay (LDH release), hRPTEC; type: cell-based, human; conditions: for CC50 at 24 h: human
Procedure, shortened: as §1

[10] = system: KP-3700, ESBL+ clinical isolate of Klebsiella pneumoniae; assay: Minimum inhibitory concentration (MIC, CLSI), KP-3700; type: cell-based; conditions: K. pneumoniae KP-3700; overnight incubation, lower of duplicate values; trifluoroacetate salt (Example 1 and PMB sulfate)
Procedure: (§2) Minimum bactericidal concentration (MBC, mg/L), minimum inhibitory concentration (MIC, mg/L), and human renal proximal tubule epithelial cell line cytotoxicity concentration 50% (hRPTEC, TC50, micromolar) for compounds of Formula I are listed in Table 2. The compounds of Formula I were tested as the corresponding trifluoroacetate salt except for Example 1 which was tested as the sulfate salt. For Table 2 below: PMB=polymyxin B as the sulfate salt (Bedford Laboratories, pharmaceutical grade); PMB1=polymyxin B1 as the trifluoroacetate salt; Nona=polymyxin B nonapeptide as the trifluoroacetate salt. PMB1 and Nona were prepared using the solid phase methodology described in the experimental section herein.
(§3) The in vitro antibacterial activity of compounds of Formula I was evaluated by MIC testing according to Clinical and Laboratory Standards Institute (CLSI). See: Clinical and Laboratory Standards Institute. Methods for Dilution Antimicrobial Susceptibility Tests for Bacteria that Grow Aerobically; Approved Standard-Eighth Edition. CLSI document M7-A8 [ISBN 1-56238-689-1]. Clinical and Laboratory Standards Institute, 940 West Valley Road, Suite 1400, Wayne, Pa. 19087-1898 USA, 2006; also Clinical and Laboratory Standards Institute. Performance Standards for Antimicrobial Susceptibility Testing; Twentieth Informational Supplement. CLSI document M100-S20 [ISBN 1-56238-716-2]. Clinical and Laboratory Standards Institute. Methods for Determining Bactericidal Activity of Antimicrobial Agents; Approved Guideline. CLSI document M26-A (ISBN 1-56238-384-1). CLSI, 940 West Valley Road, Suite 1400, Wayne, Pa. 19087-1898 USA, 1999.
(§4) The MIC determination is a standard laboratory method for evaluating the antibacterial activity of a compound. The MIC represents the lowest drug concentration that inhibits visible growth of bacteria following overnight incubation. […] Typically, the drug concentration range is broken down into 2-fold increments (e.g. 0.06 mg/L, 0.12 mg/L, 0.25 mg/L, 0.50 mg/L, 1.0 mg/L, etc.) and the various drug concentrations are all individually incubated overnight with approximately the same number of bacteria. The MIC is then determined by visually inspecting the drug effect at each concentration, and identifying the lowest drug concentration that has inhibited bacterial growth as compared to the drug free control. Typically, bacteria continue to grow at drug concentrations lower than the MIC and don't grow at concentrations at and above the MIC.
(§5) The MIC values described in Table 2 below were derived from assays wherein each test compound was evaluated in duplicate. In cases where the duplicate values varied by 0-2-fold, the lower of the two values was reported below. Generally speaking, if the duplicate values varied by more than 2-fold, the assay was considered non-valid and was repeated until the variation between duplicate runs was ≦2-fold. In line with the CLSI guidelines referred to above, both control organisms and reference compounds were utilized in each MIC assay to provide proper quality control. MIC values generated with these control organisms and reference compounds were required to fall within a defined range for the assay to be considered valid and be included herein. Those skilled in the art will recognize that MIC values can and do vary from experiment to experiment. Generally speaking, it should be recognized that MIC values often vary +/−2-fold from experiment to experiment. While a single MIC is reported for each compound and each microorganism, the reader should not conclude that each compound was only tested once. Several of the compounds were subjected to multiple tests. The data reported in Table 2 is reflective of the compounds relative activity and different MICs may have been generated on these occasions in line with the guidelines described above.
The following bacterial strains were used in these MIC determinations:
KP-3700 is an ESBL+clinical isolate of Klebsiella pneumoniae obtained in 2006; and […]

[11] = system: KP-5016, ESBL+ clinical isolate of Klebsiella pneumoniae (SHV-5); assay: Minimum inhibitory concentration (MIC, CLSI), KP-5016; type: cell-based; conditions: K. pneumoniae KP-5016; overnight incubation, lower of duplicate values; trifluoroacetate salt (Example 1 and PMB sulfate)
Procedure: as §2, §3, §4, §5
The following bacterial strains were used in these MIC determinations: […]

[12] = A. baumannii AB-3167, overnight incubation, lower of duplicate values, trifluoroacetate salt (Example 1 and PMB sulfate)

Row | Compound | AB-3167 MIC [1, 12] [µg/mL] | AB-1649 MIC [2] [µg/mL] | PA01 MIC [3] [µg/mL] | PA-1646 MIC [4] [µg/mL] | AB-1649 MBC [5] [µg/mL] | PA-1646 MBC [6] [µg/mL] | EC-1 MIC [7] [µg/mL] | reduced human renal cytotoxicity compared with PMB [8] | CC50 at 24 h [9] [µM] | KP-3700 MIC [10] [µg/mL] | KP-5016 MIC [11] [µg/mL] | AB-3167 MIC ([1]; AB-3167, clinical isolate of) [µg/mL] | CC50 [9] [µM]
1 | CC[C@H](C)CCCCC(=O)N[C@@H](CCN)C(=O)N[C@H](C(=O)N[C@@H](CN)C(=O)N[C@H]1CCNC(=O)[C@H]([C@@H](C)O)NC(=O)[C@H](CCN)NC(=O)[C@H](CCN)NC(=O)[C@H](CC(C)C)NC(=O)[C@@H](Cc2ccccc2)NC(=O)[C@H](CCN)NC1=O)[C@@H](C)O [Example 43] (X1-[Dab]T[Dap][Dab][Dab][dF]L[Dab][Dab]T; lactam 4-C) | 0.125 | 4 | 0.5 | 1 | 4 | 2 | 0.125 | 3-4 fold | 72 | – | – | – | –
2 | CC[C@H](C)[C@@H]1NC(=O)[C@@H](Cc2ccccc2)NC(=O)[C@H](CCN)NC(=O)[C@@H](NC(=O)[C@H](CN)NC(=O)[C@@H](NC(=O)[C@H](CCN)NC(=O)c2ccnc(-c3ccccc3)c2)[C@@H](C)O)CCNC(=O)[C@H]([C@@H](C)O)NC(=O)[C@H](CCN)NC(=O)[C@H](CCN)NC1=O [Example 49] ({Isonicotinoyl(2-Ph)}-[Dab]T[Dap][Dab][Dab][dF]I[Dab][Dab]T; lactam 4-C) | 0.125 | 0.25 | 0.5 | 4 | 0.25 | 8 | 0.125 | – | > 100 | 0.25 | 16 | – | –
3 | CC[C@H](C)[C@@H]1NC(=O)[C@@H](Cc2ccccc2)NC(=O)[C@H](CCN)NC(=O)[C@@H](NC(=O)[C@H](CN)NC(=O)[C@@H](NC(=O)[C@H](CCN)NC(=O)c2ccnc(-c3cccc(Cl)c3)c2)[C@@H](C)O)CCNC(=O)[C@H]([C@@H](C)O)NC(=O)[C@H](CCN)NC(=O)[C@H](CCN)NC1=O [Example 48] (X3-[Dab]T[Dap][Dab][Dab][dF]I[Dab][Dab]T; lactam 4-C) | – | 0.5 | 0.5 | 1 | 0.5 | 2 | 0.25 | – | 33 | 0.25 | 32 | 0.25 | –
4 | CC(C)C[C@@H]1NC(=O)[C@@H](Cc2ccccc2)NC(=O)[C@H](CCN)NC(=O)[C@@H](NC(=O)[C@H](CCN)NC(=O)[C@@H](N)[C@@H](C)O)CCNC(=O)[C@H]([C@@H](C)O)NC(=O)[C@H](CCN)NC(=O)[C@H](CCN)NC1=O [Nona, polymyxin B nonapeptide, reference compound] (H-T[Dab][Dab][Dab][dF]L[Dab][Dab]T; lactam 3-C (inferred)) | – | >64 | >64 | >64 | >64 | >64 | >64 | – | – | >64 | >64 | >64 | > 100
5 | CC(C)C[C@@H]1NC(=O)[C@@H](Cc2ccccc2)NC(=O)[C@H](CCN)NC(=O)[C@@H](NC(=O)[C@@H](CN)NC(=O)[C@@H](NC(=O)[C@H](CCN)NC(=O)c2ccnc(-c3ccccc3)c2)[C@@H](C)O)CCNC(=O)[C@H]([C@@H](C)O)NC(=O)[C@H](CCN)NC(=O)[C@H](CCN)NC1=O [Example 47] ({Isonicotinoyl(2-Ph)}-[Dab]T[dDap][Dab][Dab][dF]L[Dab][Dab]T; lactam 4-C) | – | 4 | 0.5 | 1 | 4 | 2 | 0.25 | – | 100 | 0.25 | 8 | 0.5 | –
